According to US5349127A, “Expression of herbicide metabolizing cytochromes P450” (priority 1992, dated 1994):

Tests used:
[1] = tested on: Tomato seedlings (Lysopersicon esculentum cv. Pixie); experiment: Tomato transplants in sulfonylurea-treated soil after dipping in water, YEME or S. lividans culture (Example 13); assay type: in vivo; conditions: for Mean value of visual ratings / Visual Injury Ratings of individual transplanted tomatoes: 19 DAT
Experimental: A 2 liter culture of S. lividans pCAO200SU1-FeS-B#9 was grown in YEME medium at 30° C. until the culture was in […] log phase of growth and the absorbance in a spectrophotometer at a wavelength of 600 nm was between about 1.0 and 1.3. Tomato seedlings (Lysopersicon esculentum cv. "Pixie") were seeded directly into soiless media, Oasis Wedges® (Smithers-Oasis, Kent, Ohio), fertilized with 500 ppm Peters'® fertilizer (20:19:18); and 300 ppm of iron was added weekly. As the tomato plants develop, roots ramify through the Oasis Wedges®. The tomato plants were transplanted to pots when they were 4 inches tail as follows.
Five inch standard round pots (without holes) were filled with Sassafras sandy loam (pH 6.7, 0.8% OM) and an oasis cube. The contents of the each pot was sprayed, prior to transplanting the tomato plants, with either 10001, in 25% dry flowable composition (25 DF) or 10010, 75 DF at rates of 16, 32, 64, 125 or 250 grams of active ingredient per hectare (g ai/ha). The Oasis cube was then removed and replaced by another containing a transplant tomato plant dipped in either water (treatment A), YEME medium (treatment B)-or the culture of S. lividans pCAO200SU1-FeS-B#9 described above (treatment C). Six transplant tomato plants received each of the three treatments, and five transplant tomato plants (to serve as controls) received no treatment. The resulting tomato plants were grown in a greenhouse for 19 days and watered twice daily, after which they were evaluated for visual injury (100=complete kill, other numbers=percentage of injury relative to controls [subjectively determined], 0=no injury) with respect to the water dipped, no-herbicide control treatments. The plants were left in the greenhouse for one more week after which the fresh weights of the shoots of the plants were determined. The roots of the plants which received these treatments and controls were examined too.

[2] = tested on: S. lividans C37; experiment: Metabolism of 10001 in growing culture, HPLC of supernatant (Example 4); assay type: in vitro ADME, Streptomyces lividans; conditions: 0.12 mg/ml 10001 in culture
Experimental: Herbicides and their metabolites are measured by HPLC as described by Romesser et al., BBRC 140: 650-659 (1986), herein incorporated by reference, except that 0.1% H3 PO4 is used in both solvents. Chromatographic identity and quantitation of the herbicides and their resulting metabolites is determined by comparing them chromatographically with authentic standard compounds. Identity of the resulting metabolites is also confirmed by UV spectroscopy.
Separate cultures (50 ml) inoculated with S. lividans C37, S. lividans transformed with pCAO400 or S. lividans transformed with pCAO401 in sporulation broth containing 0.12 mg/ml of 10001 were grown with shaking at 30° C. Aliquots (1.5 ml) of each culture were removed at 24, 32, 48 and 56 hours after inoculation and the supernatant of each aliquot was analyzed by HPLC for its concentration of 10001 and its metabolites 10002 or 10003.

[3] = tested on: S. griseus PH3832; experiment: Metabolism of 10001 by strains transformed with pPAT108 (Example 14); assay type: in vitro ADME, Streptomyces griseus; conditions: substrate 10001 120 ug/ml
Experimental: (§1) S. griseolus PH2003, S. griseus PH4001, S. ambofaciens PH4002, and S. lividans JI1326 were transformed with the plasmid pPAT108. The transformed S. griseolus strain, PH3826, was cultured for 24 hours in 150 mls of sporulation broth with 5 ug/ml thiostrepton. The transformed S. griseus strain, PH3832, and the transformed S. ambofaciens strain, PH3834, were cultured for 24 hours in 150 mls of trypticase soy broth with 5 ug/ml thiostrepton. The transformed S. lividans strain, PH3822, was similarly cultured in 150 mls of YEME broth with 5 ug/ml thiostrepton. Three hours before harvesting the cells, 50 mls of fresh medium of the same type with 5 ug/ml thiostrepton was added to each culture. The cells from each of the cultures were harvested by centrifugation, washed twice with 50 mMMOPS, pH7.2 and resuspended in five cell volumes of MOPS containing 0.2% glucose and 120 ug/ml of the sulfonylurea 10001. The cell suspensions were incubated at 30° C. with shaking and aliquots were removed at 0.5, 1, 2 and 4 hours. The supernatant of each aliquot was analyzed by HPLC and the concentration of the sulfonylurea compound 10001 and its metabolites 10002 and 10003 were determined.

[4] = tested on: S. griseus PH4001; experiment: Metabolism of 10001 by untransformed strain (Example 14); assay type: in vitro ADME, Streptomyces griseus; conditions: substrate 10001 120 ug/ml
[5] = tested on: S. ambofaciens PH4002; experiment: as above; assay type: in vitro ADME, Streptomyces ambofaciens; conditions: substrate 10001 120 ug/ml
[6] = tested on: S. ambofaciens PH3818; experiment: Metabolism of 10001 by strains transformed with pCS325 (Example 15); assay type: in vitro ADME, Streptomyces ambofaciens; conditions: substrate 10001
Experimental: as §1
S. griseolus PH2003, S. griseus PH4001, S. ambofaciens PH4002, and S. lividans JI1326 were transformed with the plasmid pCS325. Cells of the transformed strains of S. griseolus PH3809, S. griseus PH3817, S. ambofaciens PH3818, and S. lividans PH3816, were grown and treated as described in Example 14, and the concentrations of the sulfonylurea compound 10001 and its metabolites 10002 and 10003 were determined.

[7] = 16 g ai/ha, Treatment A (water)
[8] = 16 g ai/ha, Treatment A (water), scale 0-100
[9] = 16 g ai/ha, Treatment B (YEME), scale 0-100
[10] = 16 g ai/ha, Treatment C (pCAO200SU1-FeS-B#9)
[11] = 16 g ai/ha, Treatment C (pCAO200SU1-FeS-B#9), scale 0-100
[12] = 32 g ai/ha, Treatment A (water)
[13] = 32 g ai/ha, Treatment A (water), scale 0-100
[14] = 32 g ai/ha, Treatment B (YEME), scale 0-100
[15] = 32 g ai/ha, Treatment C (pCAO200SU1-FeS-B#9)
[16] = 32 g ai/ha, Treatment C (pCAO200SU1-FeS-B#9), scale 0-100
[17] = 64 g ai/ha, Treatment A (water), scale 0-100
[18] = 64 g ai/ha, Treatment B (YEME), scale 0-100
[19] = 64 g ai/ha, Treatment C (pCAO200SU1-FeS-B#9), scale 0-100
[20] = 125 g ai/ha, Treatment A (water), scale 0-100
[21] = 125 g ai/ha, Treatment B (YEME), scale 0-100
[22] = 125 g ai/ha, Treatment C (pCAO200SU1-FeS-B#9), scale 0-100
[23] = 250 g ai/ha, Treatment A (water), scale 0-100, 100 = complete kill
[24] = 250 g ai/ha, Treatment B (YEME), scale 0-100
[25] = 250 g ai/ha, Treatment C (pCAO200SU1-FeS-B#9), scale 0-100

SMILES: COC(=O)c1ccccc1S(=O)(=O)NC(=O)Nc1nc(C)cc(C)n1 [compound 10010, N-[(4,6-dimethylpyrimidin-2-yl)aminocarbonyl]-2-methoxycarbonylbenzenesulfonamide]
- Mean Shoot Fresh Weights [1, 7]: 1.28 grams
- Mean value of visual ratings [1, 8]: 70.0
- Mean Shoot Fresh Weights ([1]; 16 g ai/ha, Treatment B (YEME)): 1.58 grams
- Mean value of visual ratings [1, 9]: 63.3
- Mean Shoot Fresh Weights [1, 10]: 2.10 grams
- Mean value of visual ratings [1, 11]: 60
- Mean Shoot Fresh Weights [1, 12]: 0.65 grams
- Mean value of visual ratings [1, 13]: 93.3
- Visual Injury Ratings of individual transplanted tomatoes [1, 13]: 100,100,100
- Mean Shoot Fresh Weights ([1]; 32 g ai/ha, Treatment B (YEME)): 1.60 grams
- Mean value of visual ratings [1, 14]: 66.7
- Mean Shoot Fresh Weights [1, 15]: 1.79 grams
- Mean value of visual ratings [1, 16]: 56.7
- Mean value of visual ratings [1, 17]: 90.0
- Visual Injury Ratings of individual transplanted tomatoes [1, 17]: 80,100,100
- Mean value of visual ratings [1, 18]: 83.3
- Mean value of visual ratings [1, 19]: 86.7
- Visual Injury Ratings of individual transplanted tomatoes [1, 19]: 60,100,100
- Mean value of visual ratings [1, 20]: 91.7
- Visual Injury Ratings of individual transplanted tomatoes [1, 20]: 90,100,100
- Mean value of visual ratings [1, 21]: 83.3
- Mean value of visual ratings [1, 22]: 76.7
- Visual Injury Ratings of individual transplanted tomatoes ([1]; 250 g ai/ha, Treatment A (water), scale 0-100): 90,100,100
- Mean value of visual ratings [1, 23]: 95.0
- Mean value of visual ratings [1, 24]: 86.7
- Mean value of visual ratings [1, 25]: 85
- visual injury across treatments A, B, C ([1]; all rates): injured to similar extents regardless of the treatment they received

SMILES: COc1cc(Cl)nc(NC(=O)NS(=O)(=O)c2ccccc2C(=O)O)n1 [compound 10003, N-[(4-chloro-6-methoxy-pyrimidin-2-yol)aminocarbonyl]-2-carboxybenzenesulfonamide]
- concentration in supernatant ([2]; 0 h): 0 µM
- concentration in supernatant ([2]; 24 h): 0 µM
- concentration in supernatant ([2]; 32 h): 0 µM
- concentration in supernatant ([2]; 48 h): 3 µM
- concentration in supernatant ([2]; 56 h): 3 µM
- concentration in supernatant ([3]; 0.5 h): 9 µM
- concentration in supernatant ([3]; 1.0 h): 26 µM
- concentration in supernatant ([3]; 2.0 h): 46 µM
- concentration in supernatant ([3]; 4.0 h): 80 µM
- concentration in supernatant ([4]; 1.0 h): 1 µM
- concentration in supernatant ([4]; 4.0 h): 4 µM
- concentration in supernatant ([5]; 1.0 h): 0 µM
- concentration in supernatant ([5]; 4.0 h): 0 µM
- concentration in supernatant ([6]; 0.5 h): 1 µM
- concentration in supernatant ([6]; 1.0 h): 3 µM
- concentration in supernatant ([6]; 2.0 h): 7 µM
- concentration in supernatant ([6]; 4.0 h): 13 µM

SMILES: CCOC(=O)c1ccccc1S(=O)(=O)NC(=O)Nc1nc(Cl)cc(OC)n1 [compound 10001, N-[(4-chloro-6-methoxy-pyrimidin-2-yl)aminocarbonyl]-2-ethoxycarbonylbenzenesulfonamide]
- concentration in supernatant ([2]; 0 h): 325 µM
- concentration in supernatant ([2]; 24 h): 320 µM
- concentration in supernatant ([2]; 32 h): 295 µM
- concentration in supernatant ([2]; 48 h): 281 µM
- concentration in supernatant ([2]; 56 h): 280 µM
- concentration in supernatant ([3]; 0.5 h): 281 µM
- concentration in supernatant ([3]; 1.0 h): 238 µM
- concentration in supernatant ([3]; 2.0 h): 177 µM
- concentration in supernatant ([3]; 4.0 h): 77 µM
- concentration in supernatant ([4]; 1.0 h): 370 µM
- concentration in supernatant ([4]; 4.0 h): 377 µM
- concentration in supernatant ([5]; 1.0 h): 406 µM
- concentration in supernatant ([5]; 4.0 h): 412 µM
- concentration in supernatant ([6]; 0.5 h): 286 µM
- concentration in supernatant ([6]; 1.0 h): 265 µM
- concentration in supernatant ([6]; 2.0 h): 210 µM
- concentration in supernatant ([6]; 4.0 h): 129 µM
- Mean Shoot Fresh Weights [1, 7]: 3.25 grams
- Mean value of visual ratings [1, 8]: 43.3
- Mean Shoot Fresh Weights ([1]; 16 g ai/ha, Treatment B (YEME)): 2.35 grams
- Mean value of visual ratings [1, 9]: 51.7
- Mean Shoot Fresh Weights [1, 10]: 3.1 grams
- Mean value of visual ratings [1, 11]: 40
- Mean Shoot Fresh Weights [1, 12]: 2.49 grams
- Mean value of visual ratings [1, 13]: 68.3
- Mean Shoot Fresh Weights ([1]; 32 g ai/ha, Treatment B (YEME)): 1.76 grams
- Mean value of visual ratings [1, 14]: 58.3
- Mean Shoot Fresh Weights [1, 15]: 3.37 grams
- Mean value of visual ratings [1, 16]: 50
- visual injury, treatment C versus treatments A or B ([1]; 64, 125, and 250 g ai/ha): significantly less injured
- Mean Shoot Fresh Weights ([1]; 64 g ai/ha, Treatment A (water)): 1.37 grams
- Mean value of visual ratings [1, 17]: 66.7
- Mean Shoot Fresh Weights ([1]; 64 g ai/ha, Treatment B (YEME)): 1.40 grams
- Mean value of visual ratings [1, 18]: 63.3
- Mean Shoot Fresh Weights ([1]; 64 g ai/ha, Treatment C (pCAO200SU1-FeS-B#9)): 2.94 grams
- Mean value of visual ratings [1, 19]: 43.3
- Shoot weight, dipped in pCAO200SU1-FeS-B#9 culture versus water or YEME ([1]; 125 g ai/ha): 2-3 times
- Mean Shoot Fresh Weights ([1]; 125 g ai/ha, Treatment A (water)): 0.80 grams
- Mean value of visual ratings [1, 20]: 90
- Mean Shoot Fresh Weights ([1]; 125 g ai/ha, Treatment B (YEME)): 1.06 grams
- Mean value of visual ratings [1, 21]: 70
- Mean Shoot Fresh Weights ([1]; 125 g ai/ha, Treatment C (pCAO200SU1-FeS-B#9)): 2.72 grams
- Mean value of visual ratings [1, 22]: 50
- Shoot weight, dipped in pCAO200SU1-FeS-B#9 culture versus water or YEME ([1]; 250 g ai/ha): 3-4 times greater
- Mean Shoot Fresh Weights ([1]; 250 g ai/ha, Treatment A (water)): 0.63 grams
- Mean value of visual ratings [1, 23]: 91.7
- Mean Shoot Fresh Weights ([1]; 250 g ai/ha, Treatment B (YEME)): 0.40 grams
- Mean value of visual ratings [1, 24]: 81.7
- Mean Shoot Fresh Weights ([1]; 250 g ai/ha, Treatment C (pCAO200SU1-FeS-B#9)): 2.41 grams
- Mean value of visual ratings [1, 25]: 50.0
